Target: T1, P. hospita MdlR (C2L64_43720) (Paraburkholderia hospita, UniProt A0AAN1MPU5)
T1 construct: gene WQE_50835; full-length LysR-type regulator, gene codon-optimised for E. coli, expressed from Ptrc in E. coli NEB 5-alpha; rfp reporter under P. hospita PmdlC (PC2L64_43715)
T1 sequence (A0AAN1MPU5 1-297): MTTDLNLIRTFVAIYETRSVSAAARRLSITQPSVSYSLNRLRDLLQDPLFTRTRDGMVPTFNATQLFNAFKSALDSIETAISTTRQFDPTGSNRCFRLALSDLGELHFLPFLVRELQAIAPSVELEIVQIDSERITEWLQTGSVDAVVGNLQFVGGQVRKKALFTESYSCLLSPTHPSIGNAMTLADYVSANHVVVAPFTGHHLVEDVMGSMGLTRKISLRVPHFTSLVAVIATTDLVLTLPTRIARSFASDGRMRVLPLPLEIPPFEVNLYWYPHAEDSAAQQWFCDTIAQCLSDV
Assay: E. coli whole-cell RFP reporter assay, Hill fit
Type: cell-based
Settings: read-out: Km ^a
From the text: E. coli whole-cell RFP reporter assay, Hill fit on P. hospita MdlR (C2L64_43720)

Row | SMILES | EC50 [µM]
1 | O=C(O)[C@@H](O)c1ccccc1 [compound 1, S-mandelate] | 167
2 | O=C(O)C(=O)c1ccccc1 [compound 4, phenylglyoxylate] | 93

Reference: publication PMC10204090, “TFBMiner: A User-Friendly Command Line Tool for the Rapid Mining of Transcription Factor-Based Biosensors” (ACS Synthetic Biology, 2023)
